Assay results published in patent US9546158B2, “2,5-substituted pyrimidines” (Grünenthal GmbH, priority 2014, dated 2017).

System: not given
Test: not given
Details: not given

melting point [°C]	SMILES
232 to 235	O=C(c1cc2c(cn1)c(C1CC1)nn2-c1ncc(-c2ccccc2F)cn1)N1CCOCC1 [Compound No. 29, (3-Cyclopropyl-1-(5-(2-fluorophenyl)pyrimidin-2-yl)-1H-pyrazolo[4,3-c]pyridin-6-yl)(morpholino)methanone]
175 to 179	O=C1CN(C(=O)c2ccc3c(C4CC4)nn(-c4ncc(-c5ccccc5)cn4)c3c2)CCN1 [Compound No. 15, 4-(3-Cyclopropyl-1-(5-phenylpyrimidin-2-yl)-1H-indazole-6-carbonyl)piperazin-2-one]
252 to 255	O=C1CN(C(=O)c2ccc3c(C4CC4)nn(-c4ncc(-c5ccccc5F)cn4)c3c2)CCN1 [Compound No. 16, 4-(3-Cyclopropyl-1-(5-(2-fluorophenyl)pyrimidin-2-yl)-1H-indazole-6-carbonyl)piperazin-2-one]
217 to 221	CN1CCN(C(=O)c2ccc3c(C4CC4)nn(-c4ncc(-c5ccccc5F)cn4)c3c2)CC1=O [Compound No. 17, 4-(3-Cyclopropyl-1-(5-(2-fluorophenyl)pyrimidin-2-yl)-1H-indazole-6-carbonyl)-1-methylpiperazin-2-one]

Target: T1, human PDE4B1 (Homo sapiens, UniProt Q07343)
T1 construct: host or cells: Sf9 cells
Test: TR-FRET assay using the LANCE Ultra cAMP kit to determine the activity of hPDE4B1
Assay type: biochemical
Details: test substrate concentration of 10 μM, read-out: Inhibition of PDE4B, Inhibition in %
Text: TR-FRET Assay Using the LANCE® Ultra cAMP Kit to Determine the Activity of hPDE4B1
The effects of the compounds on the activity of the human PDE4B1 was quantified by measuring the production of 5′AMP from cAMP using a human recombinant enzyme expressed in Sf9 cells and the LANCE® Ultra cAMP kit, a TR-FRET detection method from PerkinElmer. The human PDE4B1 enzyme was purchased from SignalChem Lifesciences (Catalog #P92-31BG, Lot #H296-2).
The test compound, reference compound or water (control) was mixed with the enzyme (0.96 U) in a reaction buffer containing 50 mM Tris-HCl, 50 mM MgCl2 and 5 mM DTT (pH 8.5). Thereafter, the reaction was initiated by addition of 500 nM cAMP (substrate) and the mixture was incubated for 30 minutes at room temperature. For control basal measurements, the enzyme was omitted from the reaction mixture. After 30 minutes, the reaction was stopped and diluted by a factor of 100 with the reaction buffer supplemented with 500 μM IBMX. The fluorescence donor (europium chelate-labeled cAMP) and the fluorescence acceptor (anti-cAMP antibody labeled with the ULight™ dye) were then added together with 500 μM IBMX to a 10 μl aliquot. After 60 minutes, the fluorescence transfer corresponding to the amount of residual cAMP was measured at λex=337 nm, λem=620 nm and λem=665 nm using a microplate reader (PHERAstar, BMG). The enzyme activity was determined by dividing the signal measured at 665 nm by that measured at 620 nm (ratio) multiplied by 10000. The results were expressed as percent inhibition of the control enzyme activity. IC50 values (IC50=concentration causing a half-maximal inhibition of control specific activity) were derived from dose response measurements with ten different concentrations (n=3; N=1-3).

T1 sequence (Q07343 whole entry): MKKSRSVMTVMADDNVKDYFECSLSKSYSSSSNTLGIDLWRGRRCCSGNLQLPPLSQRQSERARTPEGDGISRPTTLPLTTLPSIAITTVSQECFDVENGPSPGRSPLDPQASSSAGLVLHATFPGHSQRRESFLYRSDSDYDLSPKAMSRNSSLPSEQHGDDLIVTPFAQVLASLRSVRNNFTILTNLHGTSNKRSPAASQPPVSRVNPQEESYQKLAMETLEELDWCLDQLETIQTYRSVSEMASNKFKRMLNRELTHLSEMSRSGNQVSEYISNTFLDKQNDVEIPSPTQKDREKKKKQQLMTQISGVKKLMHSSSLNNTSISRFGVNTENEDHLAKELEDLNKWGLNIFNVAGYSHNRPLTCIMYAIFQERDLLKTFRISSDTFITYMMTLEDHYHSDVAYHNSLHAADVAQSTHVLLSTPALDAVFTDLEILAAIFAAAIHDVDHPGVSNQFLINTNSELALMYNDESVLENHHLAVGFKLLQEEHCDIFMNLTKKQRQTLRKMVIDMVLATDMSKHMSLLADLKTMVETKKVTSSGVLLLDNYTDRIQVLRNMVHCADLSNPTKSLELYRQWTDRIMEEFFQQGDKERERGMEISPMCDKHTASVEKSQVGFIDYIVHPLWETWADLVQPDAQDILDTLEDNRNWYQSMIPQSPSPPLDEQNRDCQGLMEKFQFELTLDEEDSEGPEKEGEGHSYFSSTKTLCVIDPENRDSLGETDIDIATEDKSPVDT

SMILES	inhibition at 10 µM [%]
CC(O)c1nn(-c2ncc(-c3cc(C4CC4)ccn3)cn2)c2cc(C(=O)N3CCOCC3)ccc12 (stereo not shown) [Compound No. 73, (1-(5-(4-Cyclopropylpyridin-2-yl)pyrimidin-2-yl)-3-(1-hydroxyethyl)-1H-indazol-6-yl)(morpholino)methanone]	105
Cc1ccc(F)c(-c2cnc(-n3nc(C(C)O)c4ccc(C(=O)N(C)CCO)cc43)nc2)c1 (stereo not shown) [Compound No. 66, 1-(5-(2-Fluoro-5-methylphenyl)pyrimidin-2-yl)-3-(1-hydroxyethyl)-N-(2-hydroxyethyl)-N-methyl-1H-indazole-6-carboxamide]	105
Cc1ccc(F)c(-c2cnc(-n3nc(C(C)O)c4ccc(C(=O)N5CCOCC5)cc43)nc2)c1 (stereo not shown) [Compound No. 34, (1-(5-(2-Fluoro-5-methylphenyl)pyrimidin-2-yl)-3-(1-hydroxyethyl)-1H-indazol-6-yl)(morpholino)methanone]	107
Cc1ccc(F)c(-c2cnc(-n3nc(C(C)O)c4ccc(C(=O)N(C)CC(N)=O)cc43)nc2)c1 (stereo not shown) [Compound No. 67, N-(2-Amino-2-oxoethyl)-1-(5-(2-fluoro-5-methylphenyl)pyrimidin-2-yl)-3-(1-hydroxyethyl)-N-methyl-1H-indazole-6-carboxamide]	90
CC(O)c1nn(-c2ncc(-c3cccc(C4CC4)c3)cn2)c2cc(C(=O)N3CCOCC3)ccc12 (stereo not shown) [Compound No. 76, (1-(5-(3-Cyclopropylphenyl)pyrimidin-2-yl)-3-(1-hydroxyethyl)-1H-indazol-6-yl)(morpholino)methanone]	102
Cc1ccc(F)c(-c2cnc(-n3nc([S+](C)[O-])c4ccc(C(=O)N5CCOCC5)cc43)nc2)c1 (single isomer, unassigned) [Compound No. 65, (1-(5-(2-Fluoro-5-methylphenyl)pyrimidin-2-yl)-3-(methylsulfinyl)-1H-indazol-6-yl)(morpholino)methanone]	100
Cc1ccc(F)c(-c2cnc(-n3nc(S(C)(=O)=O)c4ccc(C(=O)N5CCOCC5)cc43)nc2)c1 [Compound No. 33, (1-(5-(2-Fluoro-5-methylphenyl)pyrimidin-2-yl)-3-(methylsulfonyl)-1H-indazol-6-yl)(morpholino)methanone]	102
Cc1ccnc(-c2cnc(-n3nc(C(C)O)c4ccc(C(=O)N5CCOCC5)cc43)nc2)c1 (stereo not shown) [Compound No. 70]	105

Further lines, results first:

inhibition at 10 µM [%]	SMILES
102	CCOc1ccc(F)c(-c2cnc(-n3nc(C(C)O)c4ccc(C(=O)N5CCOCC5)cc43)nc2)c1 (stereo not shown) [Compound No. 74, (1-(5-(5-Ethoxy-2-fluorophenyl)pyrimidin-2-yl)-3-(1-hydroxyethyl)-1H-indazol-6-yl)(morpholino)methanone]
108	COc1ccnc(-c2cnc(-n3nc(C(C)O)c4ccc(C(=O)N5CCOCC5)cc43)nc2)c1 (stereo not shown) [Compound No. 71, (3-(1-Hydroxyethyl)-1-(5-(4-methoxypyridin-2-yl)pyrimidin-2-yl)-1H-indazol-6-yl)(morpholino)methanone]
96	Cc1ccc(F)c(-c2cnc(-n3nc([S+](C)[O-])c4ccc(C(=O)N5CCOCC5)cc43)nc2)c1 (stereo not shown) [Compound No. 32, (1-(5-(2-Fluoro-5-methylphenyl)pyrimidin-2-yl)-3-(methylsulfinyl)-1H-indazol-6-yl)(morpholino)methanone]
77	CCc1ccc(F)c(-c2cnc(-n3nc(C(C)O)c4ccc(C(=O)N5CCOCC5)cc43)nc2)c1 (stereo not shown) [Compound No. 69, (1-(5-(5-Ethyl-2-fluorophenyl)pyrimidin-2-yl)-3-(1-hydroxyethyl)-1H-indazol-6-yl)(morpholino)methanone]
106	CCc1ccc(F)c(-c2cnc(-n3nc(C(C)O)c4ccc(C(=O)N(C)CC(N)=O)cc43)nc2)c1 (stereo not shown) [Compound No. 68, N-(2-Amino-2-oxoethyl)-1-(5-(5-ethyl-2-fluorophenyl)pyrimidin-2-yl)-3-(1-hydroxyethyl)-N-methyl-1H-indazole-6-carboxamide]

Target: T1, human PDE4B1
Test: cAMP HTRF assay to determine the activity of hPDE4B1
Assay type: biochemical
Details: test substrate concentration of 1 μM, read-out: Inhibition of PDE4B, Inhibition in %
Procedure: cAMP HTRF® Assay to Determine the Activity of hPDE4B1
The inhibiting effect of the compounds on the enzyme activity of human PDE4B1 was measured by the quantification of 5′-adenosine monophosphate (5′-AMP), which is formed from 3′,5′-cyclic adenosine monophosphate (cAMP). Human recombinant enzyme, expressed in Sf9 cells, and the HTRF (homogeneous time-resolved fluorescence) detection method were used in the assay.
The test compound or water (control) was mixed with the human recombinant PDE4B1 enzyme (4.8 U) in a buffer consisting of 44.4 mM tris-HCl, 5.28 mM MgCl2, 2.64 mM DTT and 0.044% Tween 20 (pH 7.8). After adding the cAMP enzyme substrate (final concentration 40 nM), the mixture was incubated for 30 minutes at room temperature. Then a fluorescence acceptor (Dye2 marked with cAMP), a fluorescence donor (anti-cAMP antibody marked with a europium cryptate) and the non-specific phosphodiesterase inhibitor IBMX (3-isobutyl-1-methylxanthine; final concentration 1 mM) were added. After 60 minutes the fluorescence transfer, which correlates with the amount of remaining cAMP, was measured with a microplate reader (Rubystar, BMG) at λex=337 nm, λem=620 nm and λem=665 nm. The enzyme activity was calculated from the quotient formed from the measured signal at 665 nm and that at 620 nm. The result was expressed as the percentage inhibition of enzyme activity of the control (without PDE4 inhibitor). The enzyme was omitted for measurement of the basal control. IC50 values (IC50=concentration causing a half-maximal inhibition of control specific activity) were derived from dose response measurements with eight different concentrations (n=2; N=1-3).
Literature: N. Saldou et al., Comparison of recombinant human PDE4 isoforms: interaction with substrate and inhibitors, Cell. Signal. Vol. 10, No. 6, 427-440, 1998

SMILES	inhibition at 1 µM [%]
O=C1CN(C(=O)c2ccc3c(C4CC4)nn(-c4ncc(-c5ccccc5)cn4)c3c2)CCN1 [Compound No. 15, 4-(3-Cyclopropyl-1-(5-phenylpyrimidin-2-yl)-1H-indazole-6-carbonyl)piperazin-2-one]	96
O=C1CN(C(=O)c2ccc3c(C4CC4)nn(-c4ncc(-c5ccccc5F)cn4)c3c2)CCN1 [Compound No. 16, 4-(3-Cyclopropyl-1-(5-(2-fluorophenyl)pyrimidin-2-yl)-1H-indazole-6-carbonyl)piperazin-2-one]	99
CN1CCN(C(=O)c2ccc3c(C4CC4)nn(-c4ncc(-c5ccccc5F)cn4)c3c2)CC1=O [Compound No. 17, 4-(3-Cyclopropyl-1-(5-(2-fluorophenyl)pyrimidin-2-yl)-1H-indazole-6-carbonyl)-1-methylpiperazin-2-one]	95
COCCNC(=O)c1cc2c(cn1)c(C1CC1)nn2-c1ncc(-c2ccccc2F)cn1 [compound 41, 3-Cyclopropyl-1-(5-(2-fluorophenyl)pyrimidin-2-yl)-N-(2-methoxyethyl)-1H-pyrazolo[4,3-c]pyridine-6-carboxamide]	69
COC[C@@H]1CCCN1C(=O)c1cc2c(cn1)c(C1CC1)nn2-c1ncc(-c2ccccc2F)cn1 [compound 48, (S)-(3-Cyclopropyl-1-(5-(2-fluorophenyl)pyrimidin-2-yl)-1H-pyrazolo[4,3-c]pyridin-6-yl)(2-(methoxymethyl)pyrrolidin-1-yl)methanone]	43
CCN(C)C(=O)c1cc2c(cn1)c(C1CC1)nn2-c1ncc(-c2ccccc2F)cn1 [compound 37, 3-Cyclopropyl-N-ethyl-1-(5-(2-fluorophenyl)pyrimidin-2-yl)-N-methyl-1H-pyrazolo[4,3-c]pyridine-6-carboxamide]	73

Continued, values first:

inhibition at 1 µM [%]	SMILES
73	O=C(c1cc2c(cn1)c(C1CC1)nn2-c1ncc(-c2ccccc2F)cn1)N1CCOCC1 [Compound No. 29, (3-Cyclopropyl-1-(5-(2-fluorophenyl)pyrimidin-2-yl)-1H-pyrazolo[4,3-c]pyridin-6-yl)(morpholino)methanone]
100	COc1ccc(F)c(-c2cnc(-n3nc([S+](C)[O-])c4ccc(C(=O)N5CCOCC5)cc43)nc2)c1 (stereo not shown) [Compound No. 24, (1-(5-(2-Fluoro-5-methoxyphenyl)pyrimidin-2-yl)-3-(methylsulfinyl)-1H-indazol-6-yl)(morpholino)methanone]
54	CC1COCC(C)N1C(=O)c1cc2c(cn1)c(C1CC1)nn2-c1ncc(-c2ccccc2F)cn1 (stereo not shown) [compound 49, (3-Cyclopropyl-1-(5-(2-fluorophenyl)pyrimidin-2-yl)-1H-pyrazolo[4,3-c]pyridin-6-yl)(3,5-dimethylmorpholino)methanone]
101	Cc1cccc(-c2cnc(-n3nc([S+](C)[O-])c4ccc(C(=O)N5CCOCC5)cc43)nc2)c1 (stereo not shown) [Compound No. 23, (3-(Methylsulfinyl)-1-(5-(m-tolyl)pyrimidin-2-yl)-1H-indazol-6-yl)(morpholino)methanone]
108	C[S+]([O-])c1nn(-c2ncc(-c3ccccc3F)cn2)c2cc(C(=O)N3CC[C@@H](N)C3)ccc12 (stereo partly drawn) [Compound No. 13, ((R)-3-Aminopyrrolidin-1-yl)(1-(5-(2-fluorophenyl)pyrimidin-2-yl)-3-(methylsulfinyl)-1H-indazol-6-yl)methanone]
